Assay results reported in PubChem BioAssay AID2060325 (Molecular Pharmacology Branch, DTP, NCI, 2025).

Test system: SK-OV-3 multi-cell spheroids, viability
Assay: Anticancer human tumor SK-OV-3 cell line growth inhibition [IpAb];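 as to viability, T/C: viability read after seven days of drug exposure; percent of DMSO vehicle control luminescence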
Conditions: for IC50: curve of first compound; for viability, T/C: stronger effect = lower value; active = viability on the fitted dose curve at most 10% of control; inactive = the rest
Outline: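 Multi-cell spheroids of 60% tumour cells, 25% HUVEC and 15% MSC in ultra-low-attachment U-bottom wells, treated with agents combined with ipatasertib or abemaciclib. Half-log ranges top out near clinical Cmax, or 10 microM when Cmax is unknown.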

[1] = second compound 0.1 µM, first compound 0.0316 µM
[2] = second compound 0.1 µM, first compound 0.1 µM
[3] = second compound 0.1 µM, first compound 0.316 µM
[4] = second compound 0.1 µM, first compound 1 µM
[5] = second compound 0.1 µM, first compound 3.16 µM
[6] = second compound 0.1 µM, first compound 10 µM
[7] = second compound 0.316 µM, first compound 0.0316 µM
[8] = second compound 0.316 µM, first compound 0.1 µM
[9] = second compound 0.316 µM, first compound 0.316 µM
[10] = second compound 0.316 µM, first compound 1 µM
[11] = second compound 0.316 µM, first compound 3.16 µM
[12] = second compound 0.316 µM, first compound 10 µM
[13] = second compound 1 µM, first compound 0.0316 µM
[14] = second compound 1 µM, first compound 0.1 µM
[15] = second compound 1 µM, first compound 0.316 µM
[16] = second compound 1 µM, first compound 1 µM
[17] = second compound 1 µM, first compound 3.16 µM
[18] = second compound 1 µM, first compound 10 µM
[19] = second compound 3.16 µM, first compound 0.0316 µM
[20] = second compound 3.16 µM, first compound 0.1 µM
[21] = second compound 3.16 µM, first compound 0.316 µM
[22] = second compound 3.16 µM, first compound 1 µM
[23] = second compound 3.16 µM, first compound 3.16 µM
[24] = second compound 3.16 µM, first compound 10 µM
[25] = second compound 10 µM, first compound 0.0316 µM
[26] = second compound 10 µM, first compound 0.1 µM
[27] = second compound 10 µM, first compound 0.316 µM
[28] = second compound 10 µM, first compound 1 µM
[29] = second compound 10 µM, first compound 3.16 µM
[30] = second compound 10 µM, first compound 10 µM
[31] = second compound 0.1 µM, first compound 0.00949 µM
[32] = second compound 0.1 µM, first compound 0.03 µM
[33] = second compound 0.1 µM, first compound 0.0949 µM
[34] = second compound 0.1 µM, first compound 0.3 µM
[35] = second compound 0.316 µM, first compound 0.00949 µM
[36] = second compound 0.316 µM, first compound 0.03 µM
[37] = second compound 0.316 µM, first compound 0.0949 µM
[38] = second compound 0.316 µM, first compound 0.3 µM
[39] = second compound 1 µM, first compound 0.00949 µM
[40] = second compound 1 µM, first compound 0.03 µM
[41] = second compound 1 µM, first compound 0.0949 µM
[42] = second compound 1 µM, first compound 0.3 µM
[43] = second compound 3.16 µM, first compound 0.00949 µM
[44] = second compound 3.16 µM, first compound 0.03 µM
[45] = second compound 3.16 µM, first compound 0.0949 µM
[46] = second compound 3.16 µM, first compound 0.3 µM
[47] = second compound 10 µM, first compound 0.00949 µM
[48] = second compound 10 µM, first compound 0.03 µM
[49] = second compound 10 µM, first compound 0.0949 µM
[50] = second compound 10 µM, first compound 0.3 µM

C=CC(=O)N1CCN(c2nc(=O)n(-c3c(C)ccnc3C(C)C)c3nc(-c4c(O)cccc4F)c(F)cc23)C(C)C1 (stereo not given) + CC(C)NCC(C(=O)N1CCN(c2ncnc3c2C(C)CC3O)CC1)c1ccc(Cl)cc1
active: viability, T/C [25] 9.96% | viability, T/C [26] 10.9% | viability, T/C [27] 10.4% | viability, T/C [28] 10.8% | viability, T/C [29] 10.9% | viability, T/C [30] 6.35%
< 31.6 nM: IC50 (second compound 0.316 µM) | IC50 (second compound 1 µM) | IC50 (second compound 3.16 µM) | IC50 (second compound 10 µM)
7190 nM: IC50 (second compound 0.1 µM)
inactive: viability, T/C [1] 75.9% | viability, T/C [2] 80.2% | viability, T/C [3] 77.7% | viability, T/C [4] 76.3% | viability, T/C [5] 72.7% | viability, T/C [6] 41% | viability, T/C [7] 35.8% | viability, T/C [8] 39.4% | viability, T/C [9] 39.6% | viability, T/C [10] 38.7% | viability, T/C [11] 39.5% | viability, T/C [12] 26.2% | viability, T/C [13] 21.1% | viability, T/C [14] 19.1% | viability, T/C [15] 21.4% | viability, T/C [16] 23.8% | viability, T/C [17] 24.6% | viability, T/C [18] 16.9% | viability, T/C [19] 14.8% | viability, T/C [20] 17.1% | viability, T/C [21] 16.4% | viability, T/C [22] 18.2% | viability, T/C [23] 17% | viability, T/C [24] 11.2%

CC(=O)c1c(C)c2cnc(Nc3ccc(N4CCNCC4)cn3)nc2n(C2CCCC2)c1=O + CC(C)NCC(C(=O)N1CCN(c2ncnc3c2C(C)CC3O)CC1)c1ccc(Cl)cc1
9.88 nM: IC50 (second compound 0.1 µM)
active: viability, T/C (second compound 10 µM, first compound 0.000949 µM) 9.94% | viability, T/C (second compound 10 µM, first compound 0.003 µM) 9.77% | viability, T/C [47] 8.83% | viability, T/C [48] 8.26% | viability, T/C [49] 10.6% | viability, T/C [50] 10.5%
< 0.949 nM: IC50 (second compound 0.316 µM) | IC50 (second compound 1 µM) | IC50 (second compound 3.16 µM) | IC50 (second compound 10 µM)
inactive: viability, T/C (second compound 0.1 µM, first compound 0.000949 µM) 70.5% | viability, T/C (second compound 0.1 µM, first compound 0.003 µM) 62.3% | viability, T/C [31] 50.6% | viability, T/C [32] 40.2% | viability, T/C [33] 35.8% | viability, T/C [34] 34.2% | viability, T/C (second compound 0.316 µM, first compound 0.000949 µM) 36.3% | viability, T/C (second compound 0.316 µM, first compound 0.003 µM) 32.9% | viability, T/C [35] 28% | viability, T/C [36] 25.6% | viability, T/C [37] 23.9% | viability, T/C [38] 26.2% | viability, T/C (second compound 1 µM, first compound 0.000949 µM) 20.3% | viability, T/C (second compound 1 µM, first compound 0.003 µM) 18.3% | viability, T/C [39] 17.6% | viability, T/C [40] 14.7% | viability, T/C [41] 15.9% | viability, T/C [42] 18.5% | viability, T/C (second compound 3.16 µM, first compound 0.000949 µM) 16.5% | viability, T/C (second compound 3.16 µM, first compound 0.003 µM) 14.7% | viability, T/C [43] 14.1% | viability, T/C [44] 15.6% | viability, T/C [45] 13.4% | viability, T/C [46] 13.5%

CC(C)(C)c1cnc(CSc2cnc(NC(=O)C3CCNCC3)s2)o1 + CC(C)NCC(C(=O)N1CCN(c2ncnc3c2C(C)CC3O)CC1)c1ccc(Cl)cc1
< 9.49 nM: IC50 (second compound 1 µM) | IC50 (second compound 3.16 µM) | IC50 (second compound 10 µM)
inactive: viability, T/C [31] 74.8% | viability, T/C [32] 92% | viability, T/C [33] 89.1% | viability, T/C [34] 14.5% | viability, T/C [35] 49.5% | viability, T/C [36] 50.8% | viability, T/C [37] 73.7% | viability, T/C [38] 17.3% | viability, T/C [39] 22.3% | viability, T/C [40] 30.2% | viability, T/C [41] 41.9% | viability, T/C [42] 11.7% | viability, T/C [43] 18% | viability, T/C [44] 22.6% | viability, T/C [45] 28.4% | viability, T/C [46] 9.86% | viability, T/C [47] 11.3% | viability, T/C [48] 11.4%
168 nM: IC50 (second compound 0.1 µM)
active: viability, T/C (second compound 0.1 µM, first compound 0.949 µM) 0.65% | viability, T/C (second compound 0.1 µM, first compound 3 µM) 0.75% | viability, T/C (second compound 0.316 µM, first compound 0.949 µM) 0.41% | viability, T/C (second compound 0.316 µM, first compound 3 µM) 0.65% | viability, T/C (second compound 1 µM, first compound 0.949 µM) 0.3% | viability, T/C (second compound 1 µM, first compound 3 µM) 0.62% | viability, T/C (second compound 3.16 µM, first compound 0.949 µM) 0.58% | viability, T/C (second compound 3.16 µM, first compound 3 µM) 0.66% | viability, T/C [49] 14.2% | viability, T/C [50] 2.96% | viability, T/C (second compound 10 µM, first compound 0.949 µM) 0.36% | viability, T/C (second compound 10 µM, first compound 3 µM) 0.65%
118 nM: IC50 (second compound 0.316 µM)

Cc1nc(NC(=O)N2CCCC2C(N)=O)sc1-c1ccnc(C(C)(C)C(F)(F)F)c1 (stereo not given) + CC(C)NCC(C(=O)N1CCN(c2ncnc3c2C(C)CC3O)CC1)c1ccc(Cl)cc1
< 31.6 nM: IC50 (second compound 0.316 µM) | IC50 (second compound 1 µM) | IC50 (second compound 3.16 µM) | IC50 (second compound 10 µM)
active: viability, T/C [5] 9% | viability, T/C [6] 5% | viability, T/C [11] 8.53% | viability, T/C [12] 4.14% | viability, T/C [16] 9.61% | viability, T/C [17] 7.02% | viability, T/C [18] 4.07% | viability, T/C [21] 7.81% | viability, T/C [22] 6.61% | viability, T/C [23] 6.22% | viability, T/C [24] 4.46% | viability, T/C [25] 7.89% | viability, T/C [26] 8.14% | viability, T/C [27] 5.69% | viability, T/C [28] 5.04% | viability, T/C [29] 3.63% | viability, T/C [30] 2.25%
120 nM: IC50 (second compound 0.1 µM)
inactive: viability, T/C [1] 67.1% | viability, T/C [2] 52.7% | viability, T/C [3] 35% | viability, T/C [4] 19.4% | viability, T/C [7] 33.5% | viability, T/C [8] 30.2% | viability, T/C [9] 22.5% | viability, T/C [10] 11.6% | viability, T/C [13] 16.4% | viability, T/C [14] 15.6% | viability, T/C [15] 13.8% | viability, T/C [19] 14.5% | viability, T/C [20] 11.2%

Cn1nccc1Nc1nccc(-c2ccn(C(CO)c3ccc(Cl)c(F)c3)c(=O)c2)n1 (stereo not given) + CC(C)NCC(C(=O)N1CCN(c2ncnc3c2C(C)CC3O)CC1)c1ccc(Cl)cc1
active: viability, T/C [22] 9.52% | viability, T/C [23] 8.01% | viability, T/C [24] 4.41% | viability, T/C [26] 8.62% | viability, T/C [27] 7.34% | viability, T/C [28] 7.5% | viability, T/C [29] 6.98% | viability, T/C [30] 2.15%
5040 nM: IC50 (second compound 0.1 µM)
< 31.6 nM: IC50 (second compound 0.316 µM) | IC50 (second compound 1 µM) | IC50 (second compound 3.16 µM) | IC50 (second compound 10 µM)
inactive: viability, T/C [1] 71.3% | viability, T/C [2] 68% | viability, T/C [3] 67.6% | viability, T/C [4] 68.3% | viability, T/C [5] 62.3% | viability, T/C [6] 31.9% | viability, T/C [7] 36.5% | viability, T/C [8] 36% | viability, T/C [9] 37.7% | viability, T/C [10] 36.9% | viability, T/C [11] 29.7% | viability, T/C [12] 16.6% | viability, T/C [13] 18.4% | viability, T/C [14] 18.7% | viability, T/C [15] 17.6% | viability, T/C [16] 16.8% | viability, T/C [17] 15.2% | viability, T/C [18] 7.24% | viability, T/C [19] 15.6% | viability, T/C [20] 12.6% | viability, T/C [21] 10.6% | viability, T/C [25] 9.59%
